Measurements reported in US20200148937A1, “INHIBITING HYDROCARBON HYDRATE AGGLOMERATION” (COMMONWEALTH SCIENTIFIC AND INDUSTRIAL RESEARCH ORGANISATION, priority 2017, published 2020).

Experiment: X-ray diffraction of the gas hydrates formed
Format: physicochemical
Details: systems 1-3; combination of structure I and structure II hydrate in all three systems
Text: FIG. 17(a) illustrates the X-ray diffraction pattern of the gas hydrates formed in systems 1-3.
The diffraction studies indicate that regardless of the nature of the AA used the XRD pattern of the solids formed are very similar indicating essentially the same hydrate mixtures are formed in each of systems 1-3. In short, there is a combination of structure I and structure II hydrate formed in all three systems considered.

Cc1c(C)c2c(c(C)c1OC(=O)CCC(=O)O)CCC(C)(CCCC(C)CCCC(C)CCCC(C)CCCC(C)C)O2 (stereo not shown) [tocopherol succinate]
effect on structure of the hydrate formed (XRD pattern): does not alter the structure of the hydrate formed
